Consider 14 compounds from PubChem BioAssay (NCI).

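Growth conditions: 96-well plates. Treatment: test compound, 48 hours, 5 concentrations. Analysis: linear interpolation between bracketing concentrations; unreached endpoints set to highest concentration. At the GI50, growth is halved. TGI marks complete inhibition of growth.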

Among the test systems are SK-MEL-28 melanoma; SNB-19 CNS; MOLT-4 leukemia; HT29 colon; SNB-75 CNS; OVCAR-3 ovarian; MALME-3M melanoma; 786-0 renal; A498 renal; NCI-H460 lung.
Experiment in all cases: NCI-60 cell line screen, 48 h

Turning to `c1cc2[nH]ncc2cc1-c1nc2ccc3[nH]ncc3c2c2c1CCCC2`, the GI50 in the test on SK-MEL-28 melanoma is 1.28 µM; in the test with SNB-19 CNS it was 2.35 µM; in the test on MOLT-4 leukemia, 1.13 µM; with HT29 colon it was 1.59 µM; with SNB-75 CNS, 0.998 µM; in the test with OVCAR-3 ovarian, 1.78 µM. In addition, the GI50 in the test with MALME-3M melanoma was 1.08 µM; with 786-0 renal, 2.1 µM; in the test on A498 renal, 0.273 µM; in the test with NCI-H460 lung, 1.2 µM. Moreover, the TGI in the test with SK-MEL-28 melanoma is 5.88 µM; in the test with SNB-19 CNS, 11 µM; with MOLT-4 leukemia it was greater than 20.9 µM; in the test with HT29 colon, 13.1 µM; with SNB-75 CNS, 4.36 µM; in the test on OVCAR-3 ovarian it was 7.58 µM. Further, the TGI in the test with MALME-3M melanoma came out at 4.22 µM; in the test with 786-0 renal, 11.3 µM; in the test on A498 renal, 1.82 µM; in the test with NCI-H460 lung, 10.5 µM.
For `C[C@H](Nc1ncnc2nc[nH]c12)c1cc2ccc(F)cc2nc1-c1ccccn1`, the GI50 in the test with SK-MEL-28 melanoma was greater than 100 µM; in the test with SNB-19 CNS, greater than 100 µM; with MOLT-4 leukemia, 52.2 µM; with HT29 colon it was greater than 100 µM; with SNB-75 CNS, 2.68 µM; in the test on OVCAR-3 ovarian, 34.3 µM. Besides, the GI50 in the test on MALME-3M melanoma was greater than 87.8 µM; with 786-0 renal it was 14.3 µM; in the test with A498 renal, 1.02 µM; in the test on NCI-H460 lung, greater than 100 µM. In addition, the TGI was greater than 100 µM in the test on SK-MEL-28 melanoma; greater than 100 µM in the test on SNB-19 CNS; greater than 100 µM with MOLT-4 leukemia; greater than 100 µM in the test on HT29 colon; 60.5 µM with SNB-75 CNS; greater than 100 µM in the test on OVCAR-3 ovarian. The TGI with MALME-3M melanoma was greater than 100 µM; in the test on 786-0 renal, greater than 100 µM; with A498 renal, 10.7 µM; in the test with NCI-H460 lung it was greater than 100 µM.
Consider `CC(=O)c1ccc(OCC(O)CO)cc1` (centres undefined), for which the TGI in the test with SK-MEL-28 melanoma, with SNB-19 CNS, with MOLT-4 leukemia, in the test on HT29 colon, in the test with SNB-75 CNS and with OVCAR-3 ovarian was greater than 100 µM each time. Further, the TGI in the test with MALME-3M melanoma is greater than 100 µM; with 786-0 renal it was 76.2 µM; with A498 renal, greater than 100 µM; in the test with NCI-H460 lung, greater than 100 µM.
`Cc1ccccc1-n1ncc(C(=O)c2ccccc2)c1N`: the GI50 was greater than 25 µM in the test with SK-MEL-28 melanoma; greater than 25 µM in the test on SNB-19 CNS; greater than 25 µM with MOLT-4 leukemia; greater than 25 µM in the test on HT29 colon; greater than 9.3 µM in the test with SNB-75 CNS; greater than 25 µM in the test with OVCAR-3 ovarian. In addition, the GI50 in the test on MALME-3M melanoma, in the test on 786-0 renal, in the test on A498 renal and with NCI-H460 lung was greater than 25 µM each time. Moreover, the TGI in the test with SK-MEL-28 melanoma, in the test on SNB-19 CNS, with MOLT-4 leukemia, in the test on HT29 colon, in the test on SNB-75 CNS and in the test with OVCAR-3 ovarian was greater than 25 µM in each case. The TGI in the test on MALME-3M melanoma, in the test on 786-0 renal, with A498 renal and in the test with NCI-H460 lung was greater than 25 µM in each case.
For `COc1ccc(C(SCC(N)C(=O)O)(c2ccccc2)c2ccccc2)cc1` (centres undefined), the GI50 in the test on SK-MEL-28 melanoma was 3.12 µM; with SNB-19 CNS, 0.0594 µM; in the test with MOLT-4 leukemia, 0.439 µM; in the test on HT29 colon, 0.429 µM; in the test on SNB-75 CNS, 0.447 µM; in the test on OVCAR-3 ovarian, 0.0677 µM. Also, the GI50 was greater than 43 µM in the test on MALME-3M melanoma, 0.209 µM in the test with 786-0 renal, 20.8 µM in the test on A498 renal and 0.23 µM in the test with NCI-H460 lung. In addition, the TGI is greater than 100 µM with SK-MEL-28 melanoma; greater than 100 µM in the test with SNB-19 CNS; greater than 100 µM in the test on MOLT-4 leukemia; greater than 100 µM in the test with HT29 colon; 88.1 µM in the test with SNB-75 CNS; 0.503 µM with OVCAR-3 ovarian. Moreover, the results for the TGI with MALME-3M melanoma, in the test with A498 renal and with NCI-H460 lung were greater than 100 µM, greater than 84.6 µM and greater than 41.9 µM, respectively.
Regarding `Cc1ccc(NC(=O)C(=O)C(C#N)c2nc(-c3ccc(-c4ccccc4)cc3)cs2)c(C)c1` (centres undefined), the TGI was greater than 100 µM in the test on SK-MEL-28 melanoma; greater than 100 µM in the test with SNB-19 CNS; greater than 100 µM in the test with MOLT-4 leukemia; greater than 1 µM in the test with HT29 colon; greater than 100 µM in the test on SNB-75 CNS; greater than 100 µM with OVCAR-3 ovarian. Moreover, the TGI in the test with MALME-3M melanoma, in the test with 786-0 renal, in the test with A498 renal and in the test with NCI-H460 lung was greater than 100 µM throughout.
On to `C[C@]12CC[C@H](O)C[C@H]1CC[C@@H]1[C@@H]2CC[C@]2(C)[C@@H](C3=CC(=O)OC3)[C@@H](O)C[C@]12O`, for which the TGI is 25.6 µM with SK-MEL-28 melanoma; 15.5 µM in the test with SNB-19 CNS; 1.95 µM in the test with MOLT-4 leukemia; 11 µM in the test on HT29 colon; 16.7 µM in the test on SNB-75 CNS; 1.73 µM with OVCAR-3 ovarian. Further, the TGI with MALME-3M melanoma is 4.23 µM; in the test on 786-0 renal, 2.36 µM; with A498 renal it was 9.07 µM; in the test on NCI-H460 lung, 1.72 µM.
As to `CNC(=O)OCc1c2ccncc2c(C)c2c1[nH]c1ccccc12`, the TGI in the test with SK-MEL-28 melanoma was 2.25 µM; in the test on SNB-19 CNS, 7.98 µM; in the test with MOLT-4 leukemia, greater than 100 µM; in the test with HT29 colon, 1.59 µM; in the test with SNB-75 CNS, 1.17 µM; in the test on OVCAR-3 ovarian it was 1.74 µM. Besides, the TGI was 1.24 µM in the test on MALME-3M melanoma, 14.2 µM in the test with 786-0 renal, 0.673 µM in the test with A498 renal and 1.81 µM in the test on NCI-H460 lung.
As to `NNC(=O)CNC(=O)c1ccc(Cl)cc1Cl`, the TGI with SK-MEL-28 melanoma, in the test with SNB-19 CNS, in the test with MOLT-4 leukemia, in the test on HT29 colon, in the test on SNB-75 CNS and with OVCAR-3 ovarian was greater than 100 µM throughout. Moreover, the TGI in the test with MALME-3M melanoma, in the test with 786-0 renal, with A498 renal and in the test on NCI-H460 lung was greater than 100 µM in each case.
As to `C=CC(C1=CC(=O)C(OC)=CC1=O)c1ccccc1` (centres undefined), the TGI amounted to 29.1 µM in the test with SK-MEL-28 melanoma; 29.4 µM in the test with SNB-19 CNS; 5.81 µM in the test with MOLT-4 leukemia; 42 µM in the test on HT29 colon; 39.1 µM in the test on SNB-75 CNS; 31.2 µM in the test on OVCAR-3 ovarian. Also, the TGI in the test with MALME-3M melanoma was 28.7 µM; with 786-0 renal, 28.4 µM; in the test with A498 renal, greater than 100 µM; in the test on NCI-H460 lung, 36.3 µM.
With `Cl.Fc1c[c-]c(-c2ccccn2)c(F)c1.[Pt].c1ccc(P(c2ccccc2)C([PH+](c2ccccc2)c2ccccc2)[PH+](c2ccccc2)c2ccccc2)cc1`, the GI50 is 5.02 µM in the test with SK-MEL-28 melanoma; 4.88 µM in the test with SNB-19 CNS; 2.54 µM in the test on MOLT-4 leukemia; 3.23 µM in the test on HT29 colon; 2.01 µM in the test with SNB-75 CNS; 2.68 µM in the test on OVCAR-3 ovarian. Further, the GI50 in the test on MALME-3M melanoma is 2.5 µM; with 786-0 renal, 3.34 µM; in the test on A498 renal, 2.59 µM; in the test with NCI-H460 lung it was 3.08 µM. Further, the TGI in the test with SK-MEL-28 melanoma is 26.9 µM; in the test with SNB-19 CNS, greater than 100 µM; in the test on MOLT-4 leukemia, greater than 100 µM; in the test with HT29 colon it was 21.6 µM; with SNB-75 CNS, 9.5 µM; with OVCAR-3 ovarian, 8.06 µM. Also, the TGI in the test on MALME-3M melanoma was found to be 7.3 µM; in the test with 786-0 renal it was 20.6 µM; with A498 renal, 7.47 µM; with NCI-H460 lung it was 11.5 µM.
As for `CCN1C(=O)N(CC)C2Nn3c(s/c(=C\c4ccccc4Br)c3=O)=NC21` (centres undefined), the GI50 was 2.23 µM in the test with SK-MEL-28 melanoma; 3.18 µM in the test on SNB-19 CNS; 2.28 µM in the test with MOLT-4 leukemia; 0.558 µM in the test with HT29 colon; 0.797 µM in the test on SNB-75 CNS; 1.05 µM in the test with OVCAR-3 ovarian. In addition, the GI50 was 8.08 µM in the test on MALME-3M melanoma, 3.18 µM with 786-0 renal, 0.886 µM in the test on A498 renal and 0.804 µM in the test with NCI-H460 lung. Further, the TGI in the test on SK-MEL-28 melanoma is 69.6 µM; with SNB-19 CNS, greater than 100 µM; in the test on MOLT-4 leukemia it was 23.2 µM; with HT29 colon, 5.73 µM; with SNB-75 CNS it was 8.3 µM; with OVCAR-3 ovarian, 5.02 µM. The TGI was 78.1 µM with MALME-3M melanoma, greater than 100 µM in the test with 786-0 renal, 4.08 µM in the test on A498 renal and 10.5 µM with NCI-H460 lung.
Regarding `CC1C[C@H](C)CC(C(O)CC2CC(=O)N(Cc3ccccc3)C(=O)C2)C1O` (some centres undefined), the TGI in the test with SK-MEL-28 melanoma, in the test on SNB-19 CNS, in the test on MOLT-4 leukemia, with HT29 colon, with SNB-75 CNS and with OVCAR-3 ovarian was greater than 100 µM throughout. For the same compound, the TGI in the test with MALME-3M melanoma, in the test on 786-0 renal, in the test on A498 renal and in the test on NCI-H460 lung was greater than 100 µM throughout.
For the compound `Nc1nc2c(s1)CCc1c-2c(Br)n(Cc2ccccc2)c1Br`, the GI50 with SK-MEL-28 melanoma is 12.9 µM; in the test with SNB-19 CNS it was 23.3 µM; in the test with MOLT-4 leukemia, 2.33 µM; with HT29 colon, 10.9 µM; in the test on SNB-75 CNS, 14.5 µM; in the test with OVCAR-3 ovarian it was 3.9 µM. Also, the GI50 in the test with MALME-3M melanoma was 3.76 µM; with 786-0 renal, 7.11 µM; in the test with A498 renal, 17.3 µM; in the test on NCI-H460 lung, 21.3 µM. Also, the TGI in the test with SK-MEL-28 melanoma stood at 26.2 µM; with SNB-19 CNS it was 86.4 µM; in the test with MOLT-4 leukemia it was 26.7 µM; in the test with HT29 colon it was 27.7 µM; with SNB-75 CNS, 33.1 µM; in the test with OVCAR-3 ovarian it was 13.8 µM. The TGI was 15.4 µM with MALME-3M melanoma, 22.9 µM with 786-0 renal, 33.8 µM with A498 renal and 52.9 µM in the test with NCI-H460 lung.
